The assay has as its target T1, human recombinant USP30 (Homo sapiens, UniProt Q70CQ3).
T1 construct: purchased Boston Biochem E-582
T1 sequence (Q70CQ3 1-517): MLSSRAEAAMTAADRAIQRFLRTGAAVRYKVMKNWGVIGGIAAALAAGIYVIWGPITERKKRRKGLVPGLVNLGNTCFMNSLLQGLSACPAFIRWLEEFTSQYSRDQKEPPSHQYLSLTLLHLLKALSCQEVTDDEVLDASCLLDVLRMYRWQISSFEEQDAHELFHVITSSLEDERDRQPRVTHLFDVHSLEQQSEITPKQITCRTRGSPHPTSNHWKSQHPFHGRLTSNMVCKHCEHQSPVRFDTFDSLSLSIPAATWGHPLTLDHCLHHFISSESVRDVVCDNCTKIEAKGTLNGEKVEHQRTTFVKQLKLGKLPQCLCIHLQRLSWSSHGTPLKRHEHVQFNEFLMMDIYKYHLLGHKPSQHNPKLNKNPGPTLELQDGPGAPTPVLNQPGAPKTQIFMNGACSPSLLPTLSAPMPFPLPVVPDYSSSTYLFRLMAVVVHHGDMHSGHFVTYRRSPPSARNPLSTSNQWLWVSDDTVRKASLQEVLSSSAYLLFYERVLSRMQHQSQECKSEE
Nature of the assay: Ubiquitin-Rhodamine 110 Assay for USP30 Activity (USP30 biochemical assay). To be noted: IC50 ranges; 0.4 nM enzyme, 25 nM Ub-Rh110, 30 min preincubation, test concentration 25 μM to 1.3 nM. How it is done: Assay Example A: Description of Biochemical Assay: Ubiquitin-Rhodamine 110 Assay for USP30 Activity
The assay was performed in a final volume of 6 μL in assay buffer containing 20 mM Tris-HCl (pH 8.0, (1M Tris-HCl, pH 8.0 solution; Corning 46-031-CM)), 1 mM GSH (L-glutathione reduced, Sigma-Aldrich, G4251-100G), 0.03% BGG ([…], Sigma, G7516-25G), and 0.01% Triton X-100 (Sigma, T9284-10L). Nanoliter quantities of 10-point, 3-fold serial dilution in DMSO were pre-dispensed into 1536 assay plates (Corning, #3724BC) for a final test concentration of 25 μM to 1.3 nM, top to lowest dose, respectively. Concentration and incubation times were optimized for the maximal signal-to-background while maintaining initial velocity conditions at a fixed substrate concentration (<<Km). The final concentration of enzyme (human recombinant USP30, Boston Biochem, cat. #E-582) in the assay was 0.4 nM. Final substrate (Ub-R^h110; Ubiquitin-Rhodamine 110, UbiQ-126) concentration was 25 nM. 3 μL of 2× enzyme was added to assay plates (pre-stamped with compound), preincubated for 30 minutes and then treated with 3 μL of 2× substrate. Plates were read for fluorescence on the Envision (Perkin Elmer) or PheraSTAR (BMG) (excitation at 485 nm and emission at 535 nm) 5 times over the course of 11 minutes and the slope of this kinetic read used to normalize the raw data.
For all assay formats, data were reported as percent inhibition compared with control wells based on the following equation: % inh=1−((FLU−AveLow)/(AveHigh−AveLow)) where FLU=measured Fluorescence, AveLow=average Fluorescence of no enzyme control (n=32), and AveHigh=average Fluorescence of DMSO control (n=32). IC50 values were determined by curve fitting of the standard 4 parameter logistic fitting algorithm included in the Activity Base software package: IDBS XE Designer Model205. Data are fitted using the Levenburg Marquardt algorithm.

On to `N#CN1CCN2CCN(c3ncc(-c4ccccc4Oc4ccccc4)s3)C(=O)C2C1` (stereo in doubt) [Compound 1-113R, (R)-9-oxo-8-(5-(2-phenoxyphenyl)thiazol-2-yl)octahydro-2H-pyrazino[1,2-a]pyrazine-2-carbonitrile], for which the IC50 is under 100 nM.

For the compound `N#CN1CCN2CCN(c3ncc(-c4ccccc4Oc4ccccc4)s3)C(=O)C2C1` (stereo in doubt) [Compound 1-113S, (S)-9-oxo-8-(5-(2-phenoxyphenyl)thiazol-2-yl)octahydro-2H-pyrazino[1,2-a]pyrazine-2-carbonitrile], the IC50 was under 100 nM.

Values taken from patent publication US12049466B2, “Fused bicyclic compounds useful as ubiquitin-specific peptidase 30 inhibitors” (FORMA Therapeutics, Inc., priority 2018, dated 2024).
